In US6746686B2, “Coated implants” (Biocompatibles UK Limited, priority 2001, dated 2004):
Each block holds one substance with its values, some of them ahead of it.

Key:
Type in all cases: physicochemical
[1] = Uptake of fluorescence labelled oligonucleotide on polymer 2.2 coated stent; conditions: polymer 2.2 coated stents; 30 minutes in 5 mg/ml solution in physiological saline
Protocol: Stents coated with polymer 2.2 were loaded with a 15-mer c-myc antisense oligonucleotide AACGTTGAGGGGCAT (sequence ID 2) labelled with a fluorescence label by immersing them for 30 minutes in a 5 mg/ml solution of the DNA in physiological saline.
The total loading was determined by placing 3 of the stents each into 3 ml PBS and sonicating for 30 minutes. The fluorescent label was quantified.

[2] = Heparin loading and release, polymer 2.1 coated stents
Protocol: This study investigated the ability of polymer 2.1 coated stents to take up and release a sample of unfractionated heparin with an average molecular weight of approx. 10000D.
Loading was carried out by immersion of the coated stents into a solution of heparin in PBS. A range of conditions were used to investigate the loading onto the stents.
Table 6 Summary of conditions and results of heparin loading and release Notes—*the time where released heparin reaches maximum; **the maximum weight of heparin released during a releasing experiment (see maximum point of the release profile, FIG. 2)

[3] = Radiolabelled (35S) heparin loading and elution, polymer 2.2 coated stents
Protocol: Radiolabelled (^35S) heparin (MW 8-10 kDa) was loaded onto stents coated with polymer 2.2, from a 2 mg/ml aqueous solution. To determine the total loading the stents were placed into liquid scintillant and coated for radioactivity. The mean uptake of heparin was 11 μg per stent. The stents were each placed into a volume of PBS to determine the rate of elution of heparin over a 4 hour period.

[4] = Abciximab loading and elution in vitro
Protocol: In this study ^125I-labelled abciximab was loaded onto stents coated with either polymer 2.2 or as a comparison a bare stent (no polymer) by immersing the stents in a solution of 2 mg/ml drug in phosphate buffered saline containing 0.001% polysorbate 80 to assist dissolution for 30 minutes at room temperature. The stents were removed and wick dried. The stents were then placed into channels each forming part of a separate circuit of recirculating ([…]) phosphate buffered saline containing 1% albumin at 37° C. The level of 1251 label remaining on the stent was determined by measuring the level of label in the circulating PBS over a period of 24 or 48 hours and reported in percentage terms. The total loading of drug on stent was also determined and found to be about 5 μg per stent for the stents coated with polymer 2.2.

[5] = Loading of polymer films with FITC-Dextran; conditions: FITC-Dextran mwt 4400; polymer 1.1 and polymer 2.1 coatings
Protocol: Steel strips (1 cm×1.5 cm) were cleaned in dichloromethane for 10 minutes using the ultra-sonics bath. 200 ul of a 50 mg/ml polymer solution was evenly coated onto the steel strips. For each polymer sample seven steel strips were coated. Coated steel strips were then dried overnight in a oven at 70° C. to cure the polymer films.
Six of the coated steel strips were placed polymer side down into a well containing a 1 mg/ml drug solution. One control sample was not loaded with drug. The steel strips were submerged for 1 hour. The steel strips were then removed from the well and the excess drug removed by dabbing the surface very gently with tissue. The steel strips were then allowed to dry for a further half hour at room temperature. Each sample was then dipped quickly in clean PBS solution to remove excess drug from the coating. (3 secs dip). Each steel strip was then placed in 3 ml of PBS solution contained in vials. Each vial was then sonicated for 20 mins at a bath temperature of 35° C. in order to extract the drug from the polymer coating. Each solution was then measured using fluorescence spectroscopy to determine the amount of drug uptake
In order to study the effect of drug molecular weight on the amount loaded into a polymer coating, a compound with a variety of molecular weights which could be detected by fluorescence had to be identified. […]

[6] = polymer 2.1 stent, loading 0.2 mg/ml, 30 min, released into 1 volume PBS
[7] = polymer 2.1 stent, loading 2.0 mg/ml, 30 min, released into 0.5 volume PBS
[8] = polymer 2.1 stent, loading 10 mg/ml, 5 min, released into 0.5 volume PBS

Total loading [1]: about 20 μg per stent
Substance: AACGTTGAGGGGCAT [15-mer c-myc antisense oligonucleotide]

Total loading ([2]; polymer 2.1 stent, loading 0.2 mg/ml, 30 min): 3.4 µg | Tmax (time where released heparin reaches maximum) [2, 6]: 15 min | Wmax (maximum weight of heparin released) [2, 6]: 0.73 µg | Tmax (time where released heparin reaches maximum) [2, 7]: 20 min | Wmax (maximum weight of heparin released) [2, 7]: 2.07 µg | Tmax (time where released heparin reaches maximum) [2, 8]: 10 min | Wmax (maximum weight of heparin released) [2, 8]: 13.93 µg | Mean uptake of heparin ([3]; 2 mg/ml aqueous solution): 11 μg per stent | Release pattern ([3]; elution into PBS over 4 hours): released initially as a burst | Time to 100% release of heparin ([3]; elution into PBS, extrapolation of 4 hour release data): about 24 hours
Substance: heparin
Release from the stents ([2]; polymer 2.1 coated stents): released from the stents over a prolonged period of time

Substance: abciximab: antibody (MW about 50 kDa) to glycoprotein IIb/IIIa
Release time from stent ([4]; cationic polymer (2.2) vs bare stent, PBS with 1% albumin at 37° C.): released over a more extended time | Total loading of drug on stent ([4]; stents coated with polymer 2.2, 2 mg/ml, 30 minutes, room temperature): about 5 μg per stent

Uptake into polymer coatings [5]: could not be detected
Substance: Fluorescein Iso Thiocyanate Dextran [FITC-Dextran]
